Source: patent US20250011687A1, “BIODEGRADABLE CHELATING AGENTS AND METHODS FOR FABRIC CARE” (The Procter & Gamble Company, priority 2023, published 2025)

Tests used:
[1] = iron binding efficiency, logK(β110); format: physicochemical; conditions: one metal, one ligand, no protons
From the text: (§1) The binding efficiencies may be expressed as a binding constant. A binding constant (also called formation constant or stability constant) is an equilibrium constant for the formation of a complex in solution. It is a measure of the strength of the interaction between the reagents that come together to form the complex. As an example, various stains may comprise catechins as shown in Formula 13.
(§2) The chelating agent(s) according to various embodiments may, therefore, be selected to ensure a lower binding efficiency with calcium and a higher binding efficiency with iron at the wash pH.
(§3) In Table 1, the reaction between metals and ligands is described in terms of logK(β110). In this context, K, is the equilibrium constant for the reaction between ligands and metals. The higher K, the more metal is bound. This is illustrated in the following example.
(§4) β, represents the binding efficiency and receives some subscripts (βmlh) to indicate how many metals (m), ligands (l), and protons (h) respectively are involved.

[2] = calcium binding efficiency, logK(β110); format: physicochemical; conditions: one metal, one ligand, no protons
From the text: as §1, §2, §3, §4

[3] = pKa of chelating agents and catechin (Table 1); format: physicochemical
From the text: Chelation is a type of bonding of ions and molecules to metal ions. It involves the formation or presence of two or more separate coordinate bonds between a ligand and a metal atom. Without being bound by theory, the stain removal effectiveness of a composition comprising one or more chelating agents may depend at least in part on the ability of the chelating agent(s) to bind to iron, which may be present in some stains, such as fruit or beverage stains. Several factors may impact a chelating agent's ability to bind to iron. These factors may include the pKa of the chelating agent compared to the wash pH, and the affinity of the chelating agent to bind with other metals, materials, or compositions in the wash.
Various embodiments may provide or employ a composition that comprises one or more chelating agents having a pKa that is less than the wash pH.

[4] = Example 3 stain removal in tergotometer wash, synthetic fabric; conditions: polyester, vs HEDP
From the text: Image analysis may be used to compare each stain to an unstained fabric control. Software may be used to convert images taken into standard colorimetric values and to compare these to standards based on the commonly used Macbeth Color Rendition Chart, assigning each stain a colorimetric value (Stain Level). The CIELAB color space, also referred to as L*a*b*, is a color space defined by the International Commission on Illumination (abbreviated CIE) in 1976.[a] It expresses color as three values: L* for perceptual lightness and a* and b* for the four unique colors of human vision: red, green, blue and yellow. The lightness value, L* defines black at 0 and white at 100. The a* axis is relative to the green-magenta opponent colors, with negative values toward green and positive values toward magenta. The b* axis represents the blue-yellow opponents, with negative numbers toward blue and positive toward yellow. In the following examples, various fabrics were analyzed using commercially available image analysis software for L*a*b* values. SRI values were then calculated from the L*a*b* values using the formula shown. The higher the SRI, the better the stain removal. […]

[5] = Example 1 stain removal in tergotometer wash, unit dose compositions at pH 7.0/8.5/10.0; conditions: treatments with pH<10.0; tropolone compared to HEDP or no chelating agent
From the text: Image analysis may be used to compare each stain to an unstained fabric control. Software may be used to convert images taken into standard colorimetric values and to compare these to standards based on the commonly used Macbeth Color Rendition Chart, assigning each stain a colorimetric value (Stain Level). The CIELAB color space, also referred to as L*a*b*, is a color space defined by the International Commission on Illumination (abbreviated CIE) in 1976.[a] It expresses color as three values: L* for perceptual lightness and a* and b* for the four unique colors of human vision: red, green, blue and yellow. The lightness value, L* defines black at 0 and white at 100. The a* axis is relative to the green-magenta opponent colors, with negative values toward green and positive values toward magenta. The b* axis represents the blue-yellow opponents, with negative numbers toward blue and positive toward yellow. In the following examples, various fabrics were analyzed using commercially available image analysis software for L*a*b* values. SRI values were then calculated from the L*a*b* values using the formula shown. The higher the SRI, the better the stain removal. […] One dose of detergent treatment, as detailed in Table 3 below, was added to a tergotometer and was evaluated using the Washing Method.

SMILES	Fe (III) logK(β110) [1]	Fe (III) logK(β110) ([1]; listed as catechins)	Ca^2+ logK(β110) [2]	Ca^2+ logK(β110) ([2]; listed as catechins)	pKa ([3]; fourth listed pKa)	pKa ([3]; second listed pKa)	pKa ([3]; third listed pKa)	pKa ([3]; first listed pKa)	stain removal on synthetics fabric (in words) [4]	stain removal performance (in words) [5]
Oc1cc(O)c2c(c1)OC(c1ccc(O)c(O)c1)C(O)C2 (stereo not shown) [Catechin]	19.2	about 19.2	3.5	about 3.5	13.4	9.5	11.2			
CC(O)(P(=O)(O)O)P(=O)(O)O [HEDP, 1-Hydroxyethylidene-1,1-diphosphonic acid]	14.1		6.8		10.3	2.5	7.3	1.7		
CC(C)c1cccc(=O)c(O)c1 [Hinokitiol, 2-Hydroxy-6-(propan-2-yl)cyclohepta-2,4,6-trien-1-one]	12.9		2.2					about 7	significantly improved stain removal	improved stain removal performance
O=c1cccccc1O [Tropolone, 2-Hydroxycyclohepta-2,4,6-trien-1-one]	10.5		3.1						significantly improved stain removal	improved stain removal performance
